Experimental data as given in patent US9481670B2, “Triazine compounds” (Sphaera Pharma PTE. Ltd., priority 2011, dated 2016).

What follows are compounds tested against T1, PI3K alpha (Homo sapiens, UniProt P42336) (assay: P110 Alpha TR-FRET Assay (PI3K alpha kinase assay, HTRF Transcreener ADP Assay)). Details: PI3K (WT).
T1 construct: purchased Millipore Upstate
Format: biochemical
Procedure, shortened: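 HTRF Transcreener ADP read-out of ADP formed by PI3K (50 ng enzyme) in 50 mM HEPES pH 7.5, 5 mM MgCl2, 1 mM DTT, 30 μM Na3VO4. Compound preincubated with enzyme 20 min; reaction started with 10 μM ATP and 5 μM PIP2, run 20 min, then ADP-d2/anti-ADP cryptate detection for 1 h.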

T1 sequence (P42336 whole entry): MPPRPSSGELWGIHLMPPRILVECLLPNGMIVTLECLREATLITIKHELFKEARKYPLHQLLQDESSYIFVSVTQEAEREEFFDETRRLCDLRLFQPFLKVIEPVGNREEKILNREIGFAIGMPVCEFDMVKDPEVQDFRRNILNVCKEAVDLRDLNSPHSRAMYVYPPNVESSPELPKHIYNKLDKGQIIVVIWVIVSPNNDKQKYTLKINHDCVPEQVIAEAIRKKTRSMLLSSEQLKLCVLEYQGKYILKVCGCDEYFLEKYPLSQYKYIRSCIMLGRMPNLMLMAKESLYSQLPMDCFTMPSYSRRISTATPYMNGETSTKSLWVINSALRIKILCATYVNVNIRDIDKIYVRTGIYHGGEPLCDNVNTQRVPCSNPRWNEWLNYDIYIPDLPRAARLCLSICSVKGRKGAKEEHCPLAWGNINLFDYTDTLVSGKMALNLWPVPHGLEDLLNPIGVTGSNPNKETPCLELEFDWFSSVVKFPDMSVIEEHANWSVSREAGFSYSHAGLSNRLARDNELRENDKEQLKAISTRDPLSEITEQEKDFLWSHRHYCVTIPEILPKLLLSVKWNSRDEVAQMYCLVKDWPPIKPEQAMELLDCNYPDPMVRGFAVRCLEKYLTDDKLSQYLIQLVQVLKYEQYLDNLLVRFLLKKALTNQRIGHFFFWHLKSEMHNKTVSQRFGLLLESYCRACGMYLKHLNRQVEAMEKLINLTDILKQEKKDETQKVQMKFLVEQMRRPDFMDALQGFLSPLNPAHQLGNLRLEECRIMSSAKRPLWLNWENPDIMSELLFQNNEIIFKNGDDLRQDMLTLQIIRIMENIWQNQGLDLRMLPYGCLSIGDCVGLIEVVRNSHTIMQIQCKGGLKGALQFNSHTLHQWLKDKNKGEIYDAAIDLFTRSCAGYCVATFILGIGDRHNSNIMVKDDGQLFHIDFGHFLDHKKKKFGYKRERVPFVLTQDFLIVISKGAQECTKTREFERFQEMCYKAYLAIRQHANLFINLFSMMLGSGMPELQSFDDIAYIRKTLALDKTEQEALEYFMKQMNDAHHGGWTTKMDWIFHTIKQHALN
T1 sequence (P27986 whole entry partner): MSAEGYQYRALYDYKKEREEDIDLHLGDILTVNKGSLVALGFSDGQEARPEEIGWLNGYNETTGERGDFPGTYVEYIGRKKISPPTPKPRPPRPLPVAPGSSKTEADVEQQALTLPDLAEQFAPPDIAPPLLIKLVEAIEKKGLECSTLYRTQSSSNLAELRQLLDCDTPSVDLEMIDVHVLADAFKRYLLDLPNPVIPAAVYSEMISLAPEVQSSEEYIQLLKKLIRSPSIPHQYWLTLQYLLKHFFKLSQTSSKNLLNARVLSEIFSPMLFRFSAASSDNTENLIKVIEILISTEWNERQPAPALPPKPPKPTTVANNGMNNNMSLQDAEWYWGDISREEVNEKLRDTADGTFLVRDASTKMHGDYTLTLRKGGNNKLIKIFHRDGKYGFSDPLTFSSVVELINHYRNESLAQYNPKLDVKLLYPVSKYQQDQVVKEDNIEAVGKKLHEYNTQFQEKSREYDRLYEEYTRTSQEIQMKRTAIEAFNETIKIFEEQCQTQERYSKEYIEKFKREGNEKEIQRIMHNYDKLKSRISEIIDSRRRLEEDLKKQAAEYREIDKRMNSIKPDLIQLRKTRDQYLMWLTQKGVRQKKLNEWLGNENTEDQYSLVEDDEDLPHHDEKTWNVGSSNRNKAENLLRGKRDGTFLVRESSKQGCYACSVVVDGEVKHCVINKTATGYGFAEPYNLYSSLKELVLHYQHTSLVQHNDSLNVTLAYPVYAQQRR

| IC50 [µM] | Structure (SMILES) |
| --- | --- |
| < 5 | CN(C)C(=O)c1ccc(Oc2nc(-c3cccc4[nH]ncc34)nc(N3CCCOCC3)n2)cc1 [Compound 1073, 4-7-{[4-5-(1H-indazol-4-yl)-6-3-(1,4-oxazepan-4-yl)-1,3,5-triazin-2-yl]oxy}-N,N-dimethylbenzamide] |
| < 5 | CS(=O)(=O)N1CCN(C(=O)CNc2nc(-c3ccc(O)nc3)nc(N3CCOCC3)n2)CC1 [Compound 1074, 2-((4-(6-hydroxypyridin-3-yl)-6-morpholino-1,3,5-triazin-2-yl)amino)-1-(4-(methylsulfonyl)piperazin-1-yl)ethanone] |
| > 5 | COC1CN(c2nc(Oc3ccc(C(=O)N(C)C)cc3)nc(-c3cccc4[nH]ncc34)n2)C1 [Compound 1075, 4-9-{[4-1-(1H-indazol-4-yl)-6-5-(3-29-methoxyazetidin-1-yl)-1,3,5-triazin-2-yl]oxy}-N,N-dimethylbenzamide] |
| < 5 | CC(Nc1nc(-c2cccc(O)c2)nc(N2CCOCC2)n1)C(=O)N1CCN(S(C)(=O)=O)CC1 (stereo not shown) [Compound 1076, 2-((4-(3-hydroxyphenyl)-6-morpholino-1,3,5-triazin-2-yl)amino)-1-(4-(methylsulfonyl)piperazin-1-yl)propan-1-one] |
| < 5 | Nc1ncc(-c2nc(N3CCNCC3)nc(N3CCOCC3)n2)cn1 [Compound 1077, 5-13-[4-5-(morpholin-4-yl)-6-3-(piperazin-1-yl)-1,3,5-triazin-2-yl]pyrimidin-2-amine] |
| > 5 | O=C(O)CNc1nc(-c2cccc3c2CCC3=O)nc(N2CCOCC2)n1 [Compound 1078, 2-((4-morpholino-6-(1-oxo-2,3-dihydro-1H-inden-4-yl)-1,3,5-triazin-2-yl)amino)acetic acid] |
| > 5 | COc1cccc(-c2nc(NCC(=O)N3CCN(S(C)(=O)=O)CC3)nc(N3CCOCC3)n2)c1 [Compound 1079, 2-((4-(3-methoxyphenyl)-6-morpholino-1,3,5-triazin-2-yl)amino)-1-(4-(methylsulfonyl)piperazin-1-yl)ethanone] |
| > 5 | CS(=O)(=O)N1CCN(C(=O)CNc2nc(-c3ccc(F)nc3)nc(N3CCOCC3)n2)CC1 [Compound 1080, 2-((4-(6-fluoropyridin-3-yl)-6-morpholino-1,3,5-triazin-2-yl)amino)-1-(4-(methylsulfonyl)piperazin-1-yl)ethanone] |
| < 5 | CNC(=O)c1ccc(Oc2nc(-c3cnc(N)s3)nc(N3CCOCC3)n2)cc1 [Compound 1082] |
| < 5 | CS(=O)(=O)N[C@@H]1CC[C@@H](Oc2nc(-c3cccc4[nH]ncc34)nc(N3CCOCC3)n2)C1 [Compound 1083, N-[(1R,3R)-3-14-{[4-1-(1H-indazol-4-yl)-6-5-(morpholin-4-yl)-1,3,5-triazin-2-yl]oxy}cyclopentyl]methanesulfonamide] |
| > 5 | c1ccc(Nc2nc(-c3cccc4c3cnn4C3CCCCO3)nc(N3CCOCC3)n2)cc1 (stereo not shown) [Compound 1084, 4-morpholino-N-phenyl-6-(1-(tetrahydro-2H-pyran-2-yl)-1H-indazol-4-yl)-1,3,5-triazin-2-amine] |
| < 5 | CN(C)C(=O)Cc1ccc(Oc2nc(-c3cccc4[nH]ncc34)nc(N3CCOCC3)n2)cc1 [Compound 1085, 2-27-(4-14-{[4-1-(1H-indazol-4-yl)-6-5-(morpholin-4-yl)-1,3,5-triazin-2-yl]oxy}phenyl)-N,N-dimethylacetamide] |
| < 5 | O=c1[nH]c2ccc(Oc3nc(-c4cccc5[nH]ncc45)nc(N4CCOCC4)n3)cc2[nH]1 [Compound 1086, 5-23-{[4-1-(1H-indazol-4-yl)-6-5-(morpholin-4-yl)-1,3,5-triazin-2-yl]oxy}-2,3-dihydro-1H-1,3-benzodiazol-2-one] |
| < 5 | CN(C)C(=O)N1CCCC(Oc2nc(-c3cccc4[nH]ncc34)nc(N3CCOCC3)n2)CC1 (stereo not shown) [Compound 1087, 4-14-{[4-1-(1H-indazol-4-yl)-6-5-(morpholin-4-yl)-1,3,5-triazin-2-yl]oxy}-N,N-dimethylazepane-1-carboxamide] |
| < 5 | CN(C)C(=O)c1cccc(Oc2nc(-c3cccc4[nH]ncc34)nc(N3CCOCC3)n2)c1 [Compound 1088, 3-22-{[4-1-(1H-indazol-4-yl)-6-5-(morpholin-4-yl)-1,3,5-triazin-2-yl]oxy}-N,N-dimethylbenzamide] |
| < 5 | CS(=O)(=O)N1CCN(C(=O)CNc2nc(-c3cccc(O)c3)nc(N3CCOCC3)n2)CC1 [Compound 1089, 2-((4-(3-hydroxyphenyl)-6-morpholino-1,3,5-triazin-2-yl)amino)-1-(4-(methylsulfonyl)piperazin-1-yl)ethanone] |
| < 5 | NC(=O)C(Cc1ccccc1)Nc1nc(-c2cccc(O)c2)nc(N2CCOCC2)n1 (stereo not shown) [Compound 1090, 2-((4-(3-hydroxyphenyl)-6-morpholino-1,3,5-triazin-2-yl)amino)-3-phenylpropanamide] |
| < 5 | CN(C)C(=O)N1CCCC(Oc2nc(-c3cccc4[nH]ncc34)nc(N3CCOCC3)n2)C1 (stereo not shown) [Compound 1091, 3-22-{[4-1-(1H-indazol-4-yl)-6-5-(morpholin-4-yl)-1,3,5-triazin-2-yl]oxy}-N,N-dimethylpiperidine-1-carboxamide] |
| < 5 | NS(=O)(=O)Nc1ccc(Oc2nc(-c3cccc4[nH]ncc34)nc(N3CCOCC3)n2)cc1 [Compound 1092, N-(4-14-{[4-1-(1H-indazol-4-yl)-6-5-(morpholin-4-yl)-1,3,5-triazin-2-yl]oxy}phenyl)aminosulfonamide] |
| < 5 | CS(=O)(=O)Nc1ccc(Oc2nc(-c3cccc4[nH]ncc34)nc(N3CCOCC3)n2)cc1 [Compound 1093, N-(4-14-{[4-1-(1H-indazol-4-yl)-6-5-(morpholin-4-yl)-1,3,5-triazin-2-yl]oxy}phenyl)methanesulfonamide] |
| < 5 | NS(=O)(=O)N[C@H]1CC[C@H](Oc2nc(-c3cccc4[nH]ncc34)nc(N3CCOCC3)n2)CC1 [Compound 1094, N-[(1r,4r)-4-9-{[4-1-(1H-indazol-4-yl)-6-5-(morpholin-4-yl)-1,3,5-triazin-2-yl]oxy}cyclohexyl]aminosulfonamide] |
| < 5 | CS(=O)(=O)N[C@H]1CC[C@H](Oc2nc(-c3cccc4[nH]ncc34)nc(N3CCOCC3)n2)CC1 [Compound 1095, N-[(1r,4r)-4-9-{[4-1-(1H-indazol-4-yl)-6-5-(morpholin-4-yl)-1,3,5-triazin-2-yl]oxy}cyclohexyl]methanesulfonamide] |
| < 5 | CS(=O)(=O)N1CCC(COc2nc(-c3cccc4[nH]ncc34)nc(N3CCOCC3)n2)CC1 [Compound 1096, 4-(4-(1H-indazol-4-yl)-6-((1-(methylsulfonyl)piperidin-4-yl)methoxy)-1,3,5-triazin-2-yl)morpholine] |
| < 5 | CC1COCC(C)N1c1nc(Oc2ccc(C(=O)N(C)C)cc2)nc(-c2cccc3[nH]ncc23)n1 (stereo not shown) [Compound 1097, 4-9-{[4-5-(3-28,5-32-dimethylmorpholin-4-yl)-6-1-(1H-indazol-4-yl)-1,3,5-triazin-2-yl]oxy}-N,N-dimethylbenzamide] |
| < 5 | CC1COCCN1c1nc(Oc2ccc(C(=O)N(C)C)cc2)nc(-c2cccc3[nH]ncc23)n1 (stereo not shown) [Compound 1098, 4-9-{[4-1-(1H-indazol-4-yl)-6-5-(3-28-methylmorpholin-4-yl)-1,3,5-triazin-2-yl]oxy}-N,N-dimethylbenzamide] |
